In article PMC4364556, “Comparative Distribution and In Vitro Activities of the Urotensin II-Related Peptides URP1 and URP2 in Zebrafish: Evidence for Their Colocalization in Spinal Cerebrospinal Fluid-Contacting Neurons” (PLoS ONE, 2015):
Where a SMILES comes first, the peptide text is derived from it. Bridges are numbered along the chain shown (N, C = ends).

Biological target: T1, human UII receptor (hUT) (Homo sapiens, UniProt Q9UKP6)
T1 construct: expressed in transfected cells
T1 sequence (Q9UKP6 1-389): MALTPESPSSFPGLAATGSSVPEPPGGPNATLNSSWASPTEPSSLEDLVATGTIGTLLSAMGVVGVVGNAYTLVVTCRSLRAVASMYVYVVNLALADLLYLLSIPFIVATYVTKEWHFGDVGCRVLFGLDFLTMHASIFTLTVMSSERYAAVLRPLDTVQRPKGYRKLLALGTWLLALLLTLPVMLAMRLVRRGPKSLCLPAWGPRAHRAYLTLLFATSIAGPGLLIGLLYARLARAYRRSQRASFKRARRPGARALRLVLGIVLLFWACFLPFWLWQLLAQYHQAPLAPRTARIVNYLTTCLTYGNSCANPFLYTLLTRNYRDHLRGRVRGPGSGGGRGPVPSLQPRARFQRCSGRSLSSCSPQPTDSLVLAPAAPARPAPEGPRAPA
Experiment: Intracellular calcium mobilization assay (hUT-CHO cells)
Assay type: cell-based
Settings: for EC50: agonist, CHO cells stably transfected with human UT, Fluo-4 AM, 37°C, fluorescence 485/525 nm, 180 sec, peptides 10^-12 to 10^-6 M, peak fluorescence, four-parameter logistic, mean ± SEM of 7–13 independent experiments, read-out: pEC50, intracellular calcium mobilization (converted); for comparison of potency of URP1 and URP2 to activate the hUT: URP1 vs URP2; for times less potent than hUII to mobilize intracellular calcium: compared with hUII pEC50 = […]; for efficacy, increase in intracellular calcium: percentages of the baseline (baseline normalized to 100%), Fluo-4 AM peak fluorescence, similar to efficacies evoked by hUII and mURP, approximate ('around')
Method: CHO cells stably transfected with the human UII receptor (hUT-CHO) (Chatenet et al. 2004) were plated at a density of 4 x 10^4 cells/well in flat clear bottom black 96-well plates. Measures of intracellular calcium mobilization were performed as previously described (Dubessy et al. 2008) with slight modifications. Briefly, after 24 h in culture, cells were incubated for 1 h in a humidified incubator (37°C, 5% CO2) with 2 μM Fluo-4 acetoxymethyl ester (AM) calcium dye (Life Technologies) in Hank’s Buffer Saline Solution (HBSS; Life Technologies) buffered with 5 mM HEPES and supplemented with 2.5 mM probenecid (Sigma-Aldrich, Saint-Quentin Fallavier, France). Cells were washed twice with HBSS/HEPES/probenecid to remove Fluo-4 AM from the incubation medium and incubated in 150 μl of the same medium at 37°C for 15 min. Fluorescence was recorded using a Flexstation 3 fluorescence plate reader system (Molecular Devices, Saint-Grégoire, France) during 180 sec with an excitation wavelength of 485 nm, an emission wavelength of 525 nm and a cutoff filter of 515 nm. After 18 sec recording in basal conditions, 50 μl of graded concentration (10^-12 to 10^-6 M) of different peptides (4-fold final concentration) was added to the incubation medium with the built-in 8 channel pipettor at a rate of 47 μl/sec to assess their agonistic activity. After subtraction of mean fluorescence background from control wells without Fluo-4 AM, baseline was normalized to 100% and fluorescence peak values were determined for each concentration of peptide. Potency (EC50) and efficacy (Emax) were calculated with the Prism 5.0 software (GraphPad Software In., La Jolla, CA, USA) using a four-parameter logistic equation to fit peak fluorescence data.
For intracellular calcium mobilization assays, results from 7–13 independent experiments were expressed as mean ± SEM of Log(EC50) and plotted with box and whiskers. The normality of each data set was verified with the Shapiro-Wilk’s test and a one-way ANOVA test followed by a Tukey’s multiple comparison test to compare Log(EC50) between each peptide. Differences were considered significant where P<0.05.

[1] = hUT-CHO cells, one-way ANOVA followed by Tukey's test on Log(EC50)

SMILES	EC50 [µM]	comparison of potency of URP1 and URP2 to activate the hUT [1]	times less potent than hUII to mobilize intracellular calcium (hUT-CHO cells) [times]	efficacy, increase in intracellular calcium (hUT-CHO cells)	potency compared with the other tested peptides (hUT-CHO cells, vs hUII, URP1 and URP2, one-way ANOVA followed by Tukey's test on Log(EC50), P<0.05)
CC(C)[C@H](N)C(=O)N[C@H]1CSSC[C@@H](C(=O)N[C@@H](CO)C(=O)N[C@@H](CCC(N)=O)C(=O)N[C@@H](CC(N)=O)C(=O)O)NC(=O)[C@H](Cc2ccc(O)cc2)NC(=O)[C@H](CCCCN)NC(=O)[C@H](Cc2c[nH]c3ccccc23)NC(=O)[C@H](Cc2ccccc2)NC1=O [URP2] (H-VCFWKYCSQN-OH; disulfide 2-7)	0.0302	equipotent to activate the hUT	83	200–250%	
CC(C)[C@H](NC(=O)[C@@H]1CSSC[C@H](NC(=O)[C@H](C)N)C(=O)N[C@@H](Cc2ccccc2)C(=O)N[C@@H](Cc2c[nH]c3ccccc23)C(=O)N[C@@H](CCCCN)C(=O)N[C@@H](Cc2ccc(O)cc2)C(=O)N1)C(=O)O [mURP, reference compound]	0.00245				intermediate potency
CC(C)[C@H](NC(=O)[C@@H]1CSSC[C@H](NC(=O)[C@H](C)N)C(=O)N[C@@H](Cc2ccccc2)C(=O)N[C@@H](Cc2c[nH]c3ccccc23)C(=O)N[C@@H](CCCCN)C(=O)N[C@@H](Cc2ccc(O)cc2)C(=O)N1)C(=O)N[C@H](C(=O)N[C@@H](CC(N)=O)C(=O)O)[C@@H](C)O [URP1] (H-ACFWKYCVTN-OH; disulfide 2-7)	0.0102	equipotent to activate the hUT	28	200–250%	
